Measurements as given in PMC7389528, “Anti-tubercular derivatives of rhein require activation by the monoglyceride lipase Rv0183” (The Cell Surface, 2020).
In brackets after ≈: the same amount, converted by molar mass. Like-named read-outs stand apart in the source and are kept apart here.

Columns and labels:
[1] = Liver microsome stability assay, mouse; assay type: in vitro ADME, male CD-1 mouse; conditions: MLM, with NADPH, after 30 min, 1 μM compound
Experimental: (§1) The assay was performed with liver microsomes from male CD-1 mouse (Xenotech) and pooled human (Bioreclamation). Compounds HTB-03, HTB-04 and HTB-05 were tested at 1 μM with a final concentration of microsomal protein of 1 mg/mL. The reaction was initiated by the addition of NADPH (1 mM), and samples were incubated for up to […] at 37 °C in a shaking incubator. The reaction was terminated at 0, 5, 15 and 30 min by the addition of ice-cold ACN/MeOH (50:50) spiked with internal standard. Samples were centrifuged at 4000 rpm at 4 °C for 15 min and the supernatants analyzed by LC-MS/MS. The assay evaluated the metabolic stability of compounds by measuring the amount of parent remaining to test compounds with or without NADPH cofactor. LC-MS/MS: AB Sciex 4500 Qtrap; Kinetex 2.6 μm C18 100 Å column (3.0 mm × 30 mm); mobile phase A, 0.1% formic acid in H2O; mobile phase B, 0.1% formic acid in ACN; flow rate, 0.8 mL/min; room temperature.

Mtb H37Rv = test: microbe, parasite or virus in culture; assay type: cell-based; conditions: Mycobacterium tuberculosis
Vero cells = test: cells; assay type: cell-based; conditions: Chlorocebus sabaeus, MTT, cytotoxicity
[2] = Liver microsome stability assay, human; assay type: in vitro ADME; conditions: HLM, with NADPH, after 30 min, 1 μM compound
Experimental: as §1

[3] = 50 mM Tris pH 7.5, 200 mM NaCl, 2% DMSO
[4] = 50 mM Tris pH 7.5, 200 mM NaCl, no enzyme, 37 °C, 1 h
Mtb = system: Mtb; set-up: method as in Gajadeera et al., 2015; conditions: ref Gajadeera et al., 2015, cited from earlier work

Row | Compound | Substrate remaining [1] [%] | MIC (Mtb H37Rv) [µM] | IC50 (Vero cells) [µM] | Substrate remaining [2] [%] | solubility in the assay conditions [3] | stability in the assay conditions (TLC) [4] | anti-tubercular activity (Mtb) | anti-tubercular activity (Mtb; listed as rhein)
1 | CC(=O)Oc1cccc2c1C(=O)c1c(OC(C)=O)cc(C(=O)OCCCCCl)cc1C2=O [HTB-04] | 79.8 | 3.55 (≈ 1.63 µg/mL) | 84 | 82.4 | limited solubility | – | – | –
2 | NNC(=O)c1ccncc1 [INH, isoniazid, reference compound] | – | 0.26 (≈ 0.0357 µg/mL) | – | – | – | – | – | –
3 | COC(=O)c1cc(OC(C)=O)c2c(c1)C(=O)c1cccc(OC(C)=O)c1C2=O [HTB-02] | – | 5.13 (≈ 1.96 µg/mL) | 15.5 | – | – | – | – | –
4 | O=C(OCCCCCl)c1cc(O)c2c(c1)C(=O)c1cccc(O)c1C2=O [HTB-03] | 66.3 | 2.56 (≈ 0.959 µg/mL) | > 171 | 92.8 | – | appeared stable | – | –
5 | CC1CCCC(C)C1OC(=O)c1cc(O)c2c(c1)C(=O)c1cccc(O)c1C2=O (stereo not shown) [HTB-05] | 42.9 | 3.9 (≈ 1.54 µg/mL) | > 162 | 67.8 | – | – | – | –
6 | CC(=O)Oc1cccc2c1C(=O)c1c(OC(C)=O)cc(C(=O)OC3C(C)CCCC3C)cc1C2=O (stereo not shown) [HTB-06] | – | 7.31 (≈ 3.5 µg/mL) | 58.1 | – | – | – | – | –
7 | CC(=O)Oc1cccc2c1C(=O)c1c(OC(C)=O)cc(C(=O)O)cc1C2=O [Diacerein, diacerein, reference compound] | – | > 86.9 | 161 | – | – | degraded to rhein | – | –
8 | COC(=O)c1cc(O)c2c(c1)C(=O)c1cccc(O)c1C2=O [HTB-01] | – | 6.37 (≈ 1.9 µg/mL) | > 215 | – | – | – | – | –
9 | O=C(O)c1cc(O)c2c(c1)C(=O)c1cccc(O)c1C2=O [Rhein, rhein] | – | 106 (≈ 30.2 µg/mL) | 182 | – | – | – | does not exhibit anti-tubercular activity | does not inhibit Mtb
